The text below walks through data of patent US7858388B2, “MS based peptide and protein sequencing via reactions of lysine residues with peroxycarbonate compounds” (Vanderbilt University, priority 2004, dated 2010).

This data set can be described thus: Half-life of peroxycarbonate 1 in basic phosphate buffer (formation of p-nitrophenoxide). The settings on record: pH 8.2 phosphate buffer (50% MeOH). Format: physicochemical. The protocol: Reaction of p-nitrophenylchloroformate with tert-butyl hydroperoxide gave the peroxycarbonate 1 which was isolated by silica chromatography as a white solid. Pyridine was added dropwise to a 0° C. methylene chloride solution of the hydroperoxide and chloroformate. The product was characterized by ^1H and ^13C NMR, HRMS, mp=55-56° C. In basic water or water acetonitrile mixtures, 1 gave an almost immediate yellow color indicative of the formation of p-nitrophenoxide. The half-life of 1 in pH 8.2 phosphate buffer (50% MeOH) is approximately 112 sec. In basic aqueous acetonitrile solutions, αN-acetyl lysine methyl ester was converted cleanly to 2 on reaction with 10 equivalents of 1. The peroxycarbamate 2 (Ac-LPC-OMe) is stable to chromatography and can be fully characterized by spectroscopy and HRMS (“LPC” is used herein for lycine peroxycarbamate).

Compound `CC(C)(C)OOC(=O)Oc1ccc([N+](=O)[O-])cc1` [compound 1] had a half-life of about 1.87 min.
